Results published in patent publication US9302999B2, “Substituted triazoles as herbicides” (E. I. DU PONT DE NEMOURS AND COMPANY, priority 2012, dated 2016).

Legend:
Format in all cases: in vivo
[1] = tested on: field poppy (Papaver rhoeas); test: Test D pre-/postemergence: field poppy
From the text: (§1) Seeds of plant species selected from bluegrass (annual bluegrass, Poa annua), blackgrass (Alopecurus myosuroides), canarygrass (Phalaris minor), chickweed (common chickweed, Stellaria media), galium (catchweed bedstraw, Galium aparine), bromegrass, downy (downy bromegrass, Bromus tectorum), field poppy (Papaver rhoeas), field violet (Viola arvensis), foxtail, green (green foxtail, Setaria viridis), deadnettle (henbit deadnettle, Lamium amplexicaule), ryegrass, Italian (Italian ryegrass, Lolium multiflorum), kochia (Kochia scoparia), lambsquarters (Chenopodium album), oilseed rape (Brassica napus), pigweed (Amaranthus retroflexus), Russian thistle (Salsola iberica), chamomile (scentless chamomile, Matricaria inodora), speedwell (bird's-eye speedwell, Veronica persica), barley, spring (spring barley, Hordeum vulgare), wheat, spring (spring wheat, Triticum aestivum), buckwheat, wild (wild buckwheat, Polygonum convolvulus), mustard, wild (wild mustard, Sinapis arvensis), oat, wild (wild oat, Avena fatua), radish, wild (wild radish, Raphanus raphanistrum), windgrass (Apera spica-venti), barley, winter (winter barley, Hordeum vulgare), and wheat, winter (winter wheat, Triticum aestivum) were planted into a silt loam soil and treated preemergence with test chemicals formulated in a non-phytotoxic solvent mixture which included a surfactant. At the same time, these same crop and weed species were planted in pots containing the planting medium comprising spaghnum peat moss, vermiculite, wetting agent and starter nutrients and treated with postemergence applications of the test chemicals formulated in the same manner. Plants ranged in height from 2 to 18 cm (1- to 4-leaf stage).
(§2) Treated plants and controls were maintained in a controlled growth environment for 14 to 21 days after which time all species were compared to controls and visually evaluated. Plant response ratings, summarized in Table D, are based on a scale of 0 to 100 where 0 is no effect and 100 is complete control. A dash (-) response means no test result.

[2] = tested on: lambsquarters (Chenopodium album); test: Test D pre-/postemergence: lambsquarters
From the text: as §1, §2

[3] = tested on: wheat, spring (spring wheat, Triticum aestivum); test: Test D pre-/postemergence: wheat, spring
From the text: as §1, §2

[4] = Postemergence, 31 g ai/ha, scale 0 to 100 (0 no effect, 100 complete control)
[5] = Postemergence, 62 g ai/ha, scale 0 to 100 (0 no effect, 100 complete control)
[6] = Postemergence, 125 g ai/ha, scale 0 to 100, 0 no effect, 100 complete control
[7] = Postemergence, 250 g ai/ha, scale 0 to 100 (0 no effect, 100 complete control)
[8] = Preemergence, 31 g ai/ha, scale 0 to 100, 0 no effect, 100 complete control
[9] = Preemergence, 62 g ai/ha, scale 0 to 100
[10] = Preemergence, 125 g ai/ha, scale 0 to 100
[11] = Preemergence, 250 g ai/ha, scale 0 to 100
[12] = Postemergence, 16 g ai/ha, scale 0 to 100
[13] = Preemergence, 16 g ai/ha, scale 0 to 100, 0 no effect, 100 complete control

SMILES	Plant response rating: Field Poppy [1, 4]	Plant response rating: Field Poppy [1, 5]	Plant response rating: Field Poppy [1, 6]	Plant response rating: Field Poppy [1, 7]	Plant response rating: Lambsquarters [2, 4]	Plant response rating: Lambsquarters [2, 5]	Plant response rating: Lambsquarters [2, 6]	Plant response rating: Lambsquarters [2, 7]	Plant response rating, Lambsquarters [2, 8]	Plant response rating, Lambsquarters [2, 9]	Plant response rating, Lambsquarters [2, 10]	Plant response rating: Wheat, Spring [3, 4]	Plant response rating: Wheat, Spring [3, 5]	Plant response rating: Wheat, Spring [3, 6]	Plant response rating: Wheat, Spring [3, 7]	Plant response rating, Wheat, Spring [3, 8]	Plant response rating, Wheat, Spring [3, 9]	Plant response rating, Field Poppy [1, 12]	Plant response rating, Lambsquarters [2, 12]	Plant response rating, Wheat, Spring [3, 12]	other results
FC(F)(F)COc1nn(-c2ccc(C(F)(F)F)cc2)nc1Cc1ccnc(C(F)(F)F)c1 [Compound 14, 4-[[5-(2,2,2-trifluoroethoxy)-2-[4-(trifluoromethyl)phenyl]-2H-1,2,3-triazol-4-yl]methyl]-2-(trifluoromethyl)pyridine]	100	100	100	100	80	80	100	100	0	40	60	15	20	35	40	0	0	–	–	–	Plant response rating, Lambsquarters [2, 11]: 75; Plant response rating, Wheat, Spring [3, 10]: 5; Plant response rating, Wheat, Spring [3, 11]: 15
COc1nn(-c2ccc(C(F)(F)F)cc2)nc1Cc1ccnc(C(F)(F)F)c1 [Compound 15, 4-[[5-methoxy-2-[4-(trifluoromethyl)phenyl]-2H-1,2,3-triazol-4-yl]methyl]-2-(trifluoromethyl)pyridine]	100	100	100	100	100	100	100	100	0	90	100	25	30	40	50	0	0	100	50	20	Plant response rating, Lambsquarters [2, 11]: 100; Plant response rating, Wheat, Spring [3, 10]: 0; Plant response rating, Wheat, Spring [3, 11]: 5
Cc1nn(-c2ccc(C(F)(F)F)cn2)nc1Oc1ccnc(C(F)(F)F)c1 [Compound 23]	70	90	100	100	30	80	100	100	–	–	–	5	10	10	15	–	–	75	30	0	–
Cc1nn(-c2ccc(C(F)(F)F)cn2)nc1Cc1cccc(C(F)(F)F)c1 [Compound 106]	100	100	100	100	30	30	50	90	40	40	40	5	5	10	20	0	0	100	20	0	Plant response rating, Lambsquarters [2, 11]: 40; Plant response rating, Wheat, Spring [3, 10]: 0; Plant response rating, Wheat, Spring [3, 11]: 0
Cc1nn(-c2ccc(C(F)(F)F)cc2)nc1Oc1ccnc(C(F)(F)F)c1 [Compound 120]	100	100	100	100	98	100	100	100	80	90	100	10	10	20	25	0	5	100	95	10	Plant response rating, Field Poppy [1, 13]: 0; Plant response rating, Field Poppy [1, 8]: 80; Plant response rating, Field Poppy [1, 9]: 80; Plant response rating, Field Poppy [1, 10]: 100; Plant response rating, Field Poppy [1, 11]: 100; Plant response rating, Lambsquarters [2, 11]: 100; Plant response rating, Wheat, Spring [3, 13]: 0; Plant response rating, Wheat, Spring [3, 10]: 10; Plant response rating, Wheat, Spring [3, 11]: 20
COc1nn(-c2ccc(C(F)(F)F)cc2)nc1Cc1ccnc(C(F)F)c1 [Compound 138]	90	90	100	100	80	90	95	100	–	–	–	5	10	25	35	–	–	80	70	5	–
Cc1nn(-c2ccc(F)c(C(F)(F)F)c2)nc1Cc1ccnc(C(F)(F)F)c1 [Compound 156]	100	100	100	–	90	85	95	–	30	85	100	15	20	25	–	0	0	85	85	10	Plant response rating, Field Poppy [1, 13]: 85; Plant response rating, Field Poppy [1, 8]: 100; Plant response rating, Field Poppy [1, 9]: 95; Plant response rating, Field Poppy [1, 10]: 100; Plant response rating, Lambsquarters [2, 13]: 25; Plant response rating, Wheat, Spring [3, 13]: 0; Plant response rating, Wheat, Spring [3, 10]: 5
